As a reminder, the IC50 is the point on the concentration scale where inhibition reaches its midpoint.

From patent publication US20070208166A1, “Tao Kinase Modulators And Method Of Use” (Exelixis, Inc., priority 2003, published 2007) come the findings set out here.

What all share (format): biochemical
Assay [1] has as its target T1, JIK (Homo sapiens, UniProt Q9H2K8).
T1 construct: 6 nM JIK (baculovirus expressed human KIAA 1361 kinase domain2-318); made in house
T1 sequence (Q9H2K8 2-318): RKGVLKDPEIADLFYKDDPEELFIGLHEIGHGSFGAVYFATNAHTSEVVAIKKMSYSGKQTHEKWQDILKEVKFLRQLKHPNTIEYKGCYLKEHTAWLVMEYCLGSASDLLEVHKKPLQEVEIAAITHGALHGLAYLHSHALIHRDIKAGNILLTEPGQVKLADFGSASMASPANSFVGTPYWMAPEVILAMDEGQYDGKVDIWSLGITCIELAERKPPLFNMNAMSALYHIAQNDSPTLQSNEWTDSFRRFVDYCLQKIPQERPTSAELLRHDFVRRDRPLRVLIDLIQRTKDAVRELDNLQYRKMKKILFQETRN
Put plainly: JIK Luciferase-Coupled Chemiluminescent Kinase assay (LCCA). As to conditions: 2 μM ATP, 10 μM MBP, 6 nM JIK, 2 hours; read-out: JIK inhibition IC50. Here is the method:
(§1) Kinase activity and compound inhibition are investigated using one or more of the three assay formats described below. The ATP concentrations for each assay are selected to be close to the Michaelis-Menten constant (KM) for each individual kinase. Dose-response experiments are performed at 10 different inhibitor concentrations in a 384-well plate format. The data are fitted to four-parameter equation (2) below; where Y is the observed signal, X is the inhibitor concentration, Min is the background signal in the absence of enzyme (0% enzyme activity), Max is the signal in the absence of inhibitor (100% enzyme activity), IC50 is the inhibitor concentration at 50% enzyme inhibition and H represents the empirical Hill's slope to measure the cooperativity. Typically H is close to unity. Y=Min+(Max−Min)/(1+(X/IC50)ˆH) Equation (2) KIAA 1361 Assay: […]
(§2) JIK biochemical activity was assessed using a Luciferase-Coupled Chemiluminescent Kinase assay (LCCA) format. Kinase activity was measured as the percent ATP remaining following the kinase reaction. Remaining ATP was detected by luciferase-luciferin-coupled chemiluminescence. Specifically, the reaction was initiated by mixing test compounds, 2 μM ATP, 10 μM MBP and 6 nM JIK (baculovirus expressed human KIAA 1361 kinase domain2-318) in a 20 uL assay buffer (20 mM Tris-HCL pH7.5, 10 mM MgCl2, 0.02% Triton X-100, 100 mM DTT, 2 mM MnCl2). The mixture is incubated at ambient temperature for 2 hours after which 20 uL luciferase-luciferin mix is added and the chemiluminescent signal read using a Wallac Victor^2 reader. The luciferase-luciferin mix consists of 50 mM HEPES, pH 7.8, 8.5 ug/mL oxalic acid (pH 7.8), 5 (or 50) mM DTT, 0.4% Triton X-100, 0.25 mg/mL coenzyme A, 63 uM AMP, 28 ug/mL luciferin and 40,000 units of light/mL luciferase.

The target of assay [2] is T2, KIAA 1361 (baculovirus expressed human KIAA 1361 kinase domain 2-322) (Homo sapiens, UniProt Q7L7X3).
T2 construct: human KIAA 1361 kinase domain 2-322; made in house
T2 sequence (Q7L7X3 2-322): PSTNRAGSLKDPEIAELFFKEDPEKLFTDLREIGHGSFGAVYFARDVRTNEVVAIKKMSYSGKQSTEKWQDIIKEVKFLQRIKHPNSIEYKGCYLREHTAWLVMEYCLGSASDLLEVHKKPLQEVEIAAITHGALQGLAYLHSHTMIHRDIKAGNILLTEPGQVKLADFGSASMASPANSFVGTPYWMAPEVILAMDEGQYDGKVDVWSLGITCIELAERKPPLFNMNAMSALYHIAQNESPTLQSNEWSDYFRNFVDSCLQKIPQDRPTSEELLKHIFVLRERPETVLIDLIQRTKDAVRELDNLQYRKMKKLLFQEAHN
Put plainly: KIAA 1361 Luciferase-Coupled Chemiluminescent Kinase assay (LCCA). To be noted: 2 μM ATP, 10 μM MBP, 12 nM KIAA 1361, 2 hours; read-out: KIAA1361 inhibition IC50. Here is the method: as §1
as §2, with “KIAA 1361 biochemical” for “JIK biochemical”, “and 12” for “and 6”, “nM KIAA 1361” for “nM JIK”, “kinase domain 2-322)” for “kinase domain2-318)”

Assay [3] has as its target T3, TAO (Homo sapiens, UniProt Q9UL54).
T3 sequence (Q9UL54 1-1235): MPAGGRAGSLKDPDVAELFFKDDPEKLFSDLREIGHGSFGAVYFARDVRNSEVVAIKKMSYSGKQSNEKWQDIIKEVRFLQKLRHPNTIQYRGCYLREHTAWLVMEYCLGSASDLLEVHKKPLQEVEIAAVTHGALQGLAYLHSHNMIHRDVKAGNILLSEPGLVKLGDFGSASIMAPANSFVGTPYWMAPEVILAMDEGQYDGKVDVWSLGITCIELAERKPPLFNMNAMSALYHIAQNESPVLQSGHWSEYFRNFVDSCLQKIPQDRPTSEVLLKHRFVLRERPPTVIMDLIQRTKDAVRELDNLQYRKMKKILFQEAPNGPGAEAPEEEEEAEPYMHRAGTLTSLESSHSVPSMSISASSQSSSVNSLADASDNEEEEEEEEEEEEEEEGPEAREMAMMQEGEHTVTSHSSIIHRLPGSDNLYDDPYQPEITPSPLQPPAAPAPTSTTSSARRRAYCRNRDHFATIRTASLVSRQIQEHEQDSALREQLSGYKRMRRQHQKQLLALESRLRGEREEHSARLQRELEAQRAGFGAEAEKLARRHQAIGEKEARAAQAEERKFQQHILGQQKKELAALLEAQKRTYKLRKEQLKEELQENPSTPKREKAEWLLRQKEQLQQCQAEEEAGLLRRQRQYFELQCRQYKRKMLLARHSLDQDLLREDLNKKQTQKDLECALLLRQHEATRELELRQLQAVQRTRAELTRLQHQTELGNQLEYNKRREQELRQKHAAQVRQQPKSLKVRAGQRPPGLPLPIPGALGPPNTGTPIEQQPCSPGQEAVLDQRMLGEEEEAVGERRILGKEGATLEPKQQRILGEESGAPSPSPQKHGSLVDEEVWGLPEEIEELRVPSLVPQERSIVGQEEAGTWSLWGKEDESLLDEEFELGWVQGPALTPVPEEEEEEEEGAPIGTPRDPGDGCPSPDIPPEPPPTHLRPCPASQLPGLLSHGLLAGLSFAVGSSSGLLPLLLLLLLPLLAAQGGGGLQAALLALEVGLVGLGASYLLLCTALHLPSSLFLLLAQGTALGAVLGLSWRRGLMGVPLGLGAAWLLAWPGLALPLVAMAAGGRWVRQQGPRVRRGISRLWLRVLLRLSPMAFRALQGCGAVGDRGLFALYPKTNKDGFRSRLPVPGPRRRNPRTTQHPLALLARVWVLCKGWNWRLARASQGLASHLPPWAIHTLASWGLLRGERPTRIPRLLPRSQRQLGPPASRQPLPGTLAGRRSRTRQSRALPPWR
In words: TAO Luciferase-Coupled Chemiluminescent Kinase assay (LCCA). As to conditions: 2 μM ATP, 10 μM MBP, 12 nM TAO, 2 hours; read-out: TAO inhibition IC50. As to the method:
as §1
as §2, with “TAO biochemical” for “JIK biochemical”, “and 12” for “and 6”, “nM TAO” for “nM JIK”, “kinase domain 2-322)” for “kinase domain2-318)”, “mM […],” for “mM HEPES,”, “[…]” for “0.25 mg/mL”

For `O=C(NC1CCCc2ccccc21)C(NC(=O)C(c1ccccc1)C1CCCC1)c1cccnc1` (stereo not drawn) [Entry 7, 2-cyclopentyl-N-[2-oxo-1-pyridin-3-yl-2-(1,2,3,4-tetrahydronaphthalen-1-ylamino)ethyl]-2-phenylacetamide], the concentration for half-maximal inhibition (IC50) in assay [1] was less than 0.05 µM; in assay [2] it was 0.05 to 0.5 µM; in assay [3] it was 0.05 to 0.5 µM.
Take `COc1ccc2nc(NC(=O)CNC(=O)CCNC(=O)c3ccccc3)sc2c1` [Entry 85, N-(phenylcarbonyl)-beta-alanyl-N-[6-(methyloxy)-1,3-benzothiazol-2-yl]glycinamide]: the IC50 in assay [1], in assay [2] and in assay [3] was more than 5 µM throughout.
For the compound `O=C(NC(C(=O)NC1CCCc2ccccc21)c1cccnc1)c1ccc(/N=N/c2ccccc2)cc1` (stereo not drawn) [Entry 26, N-[2-oxo-1-pyridin-3-yl-2-(1,2,3,4-tetrahydronaphthalen-1-ylamino)ethyl]-4-[(E)-phenyldiazenyl]benzamide], the IC50 in assay [1] was in the range of 0.05 to 0.5 µM; in assay [2] it was 0.5 to 5 µM; in assay [3], 0.5 to 5 µM.
On to `CCc1ccc(-c2ccc(C(=O)NCC(=O)NC3CCCCC3)cc2)cc1` [Entry 53, N-[2-(cyclohexylamino)-2-oxoethyl]-4′-ethylbiphenyl-4-carboxamide], for which the concentration for half-maximal inhibition (IC50) in assay [1], in assay [2] and in assay [3] was more than 5 µM in each case.
Consider `CCc1ccc(-c2ccc(C(=O)NCC(=O)N3Cc4ccccc4C3)cc2)cc1` [Entry 57, N-[2-(1,3-dihydro-2H-isoindol-2-yl)-2-oxoethyl]-4′-ethylbiphenyl-4-carboxamide], for which the half-maximal inhibitory concentration (IC50) in assay [1], in assay [2] and in assay [3] was more than 5 µM in each case.
`CCCCCCOc1ccc(C(=O)NCC(=O)NC2CCCc3ccccc32)cc1` (stereo not drawn) [Entry 6, 4-(hexyloxy)-N-[2-oxo-2-(1,2,3,4-tetrahydronaphthalen-1-ylamino)ethyl]benzamide]: the half-inhibitory concentration (IC50) in assay [1] is less than 0.05 µM; in assay [2], less than 0.05 µM; in assay [3], 0.05 to 0.5 µM.
As to `COc1ccc(/C=C/C(=O)N[C@@H](Cc2c[nH]c3ccccc23)C(=O)NC2CCCc3ccccc32)cc1OC` (stereo partly drawn) [Entry 17, Nalpha-{(2E)-3-[3,4-bis(methyloxy)phenyl]prop-2-enoyl}-N-(1,2,3,4-tetrahydronaphthalen-1-yl)tryptophanamide], the IC50 in assay [1] lay within 0.05 to 0.5 µM; in assay [2] it was 0.05 to 0.5 µM; in assay [3], 0.5 to 5 µM.
Consider `O=C(CNC(=O)Nc1ccc(-c2ccccc2)cc1)NC1CCCc2ccccc21` (stereo not drawn) [Entry 73, N˜2˜-[(biphenyl-4-ylamino)carbonyl]-N-(1,2,3,4-tetrahydronaphthalen-1-yl)glycinamide], for which the results for the IC50 in assay [1], in assay [2] and in assay [3] were 0.05 to 0.5 µM, more than 5 µM and more than 5 µM, respectively.
Regarding `O=C(CNC(=O)c1ccc(O)cc1)NC1CCCc2ccccc21` (stereo not drawn) [Entry 56, 4-hydroxy-N-[2-oxo-2-(1,2,3,4-tetrahydronaphthalen-1-ylamino)ethyl]benzamide], the IC50 in assay [1] was in the range of 0.05 to 0.5 µM; in assay [2], 0.05 to 0.5 µM; in assay [3], 0.5 to 5 µM.
With `O=C(CNC(=O)c1ccc(Oc2ccccc2)cc1)NC1CCCc2ccccc21` (stereo not drawn) [Entry 49, N-[2-oxo-2-(1,2,3,4-tetrahydronaphthalen-1-ylamino)ethyl]-4-(phenyloxy)benzamide], the IC50 in assay [1], in assay [2] and in assay [3] was 0.05 to 0.5 µM each time.
For `O=C(CC(NC(=O)c1ccccc1)c1ccccc1)Nc1nc2ccc(O)cc2s1` (stereo not drawn) [Entry 97, N-{3-[(6-hydroxy-1,3-benzothiazol-2-yl)amino]-3-oxo-1-phenylpropyl)benzamide], the IC50 in assay [1], in assay [2] and in assay [3] was more than 5 µM in each case.
Turning to `CCCCc1ccc(NC(=O)N2CCC[C@H]2C(=O)NCc2ccc(Cl)c(Cl)c2)cc1` [Entry 22, (2S)-N˜-1˜-(4-butylphenyl)-N˜2˜-[(3,4-dichlorophenyl)methyl]pyrrolidine-1,2-dicarboxamide], the concentration for half-maximal inhibition (IC50) lay within 0.05 to 0.5 µM in assay [1], 0.05 to 0.5 µM in assay [2] and 0.5 to 5 µM in assay [3].
